Measured values as given in US20200268702A1, “METHODS OF TREATING […]” (Amarin Pharmaceuticals Ireland Limited, priority 2013, published 2020).

How the values were obtained:
[1] = tested on: patients with fasting triglyceride levels ≥200 mg/dl and <500 mg/dl despite statin therapy; assay: ANCHOR study: 12-week placebo-controlled study of >96% E-EPA on statin therapy, metabolic syndrome subgroup; assay type: in vivo, human
Procedure: A multi-center, placebo-controlled, randomized, double-blind, 12-week study was performed to evaluate the efficacy and safety of >96% E-EPA in patients with fasting triglyceride levels ≥200 mg/dl and <500 mg/dl despite statin therapy (the mean of two qualifying entry values needed to be ≥185 mg/dl and at least one of the values needed to be ≥200 mg/dl). The primary objective of the study was to determine the efficacy of >96% E-EPA 2 g daily and 4 g daily, compared to placebo, in lowering fasting TG levels in patients with high risk for cardiovascular disease and with fasting TG levels ≥200 mg/dL and <500 mg/dL, despite treatment to LDL-C goal on statin therapy.
The population for this study was men and women >18 years of age with a body mass index ≤45 kg/m^2 with fasting TG levels greater than or equal to 200 mg/dl and less than 500 mg/dl and on a stable does of statin therapy (with or without ezetimibe). The statin was atorvostatin, rosuvastatin or simvastatin. The dose of statin must have been stable for ≥4 weeks prior to the LDL-C/TG baseline qualifying measurement for randomization. The statin dose was optimized such that the patients are at their LDL-C goal at the LDL-C/TG baseline qualifying measurements. The same statin at the same dose was continued until the study ended.
Approximately 702 patients were randomized at approximately 80 centers in the U.S. The study was a 18- to 20-week, Phase 3, multi-center study consisting of 2 study periods: (1) A 6- to 8-week screening period that included a diet and lifestyle stabilization, a non-statin lipid-altering treatment washout, and an LDL-C and TG qualifying period and (2) A 12-week, double-blind, randomized, placebo-controlled treatment period.
After confirmation of qualifying fasting LDL-C and TG values, eligible patients entered a 12-week, randomized, double-blind treatment period. At Visit 4 (Week 0), patients were randomly assigned to 1 of the following treatment groups: • >96% E-EPA 2 g daily, • >96% E-EPA 4 g daily, or • Placebo.
>96% E-EPA was provided in 1 g liquid-filled, oblong, gelatin capsules. The matching placebo capsule was filled with light liquid paraffin and contained 0 g of >96% E-EPA. >96% E-EPA capsules were to be taken with food (i.e. with or at the end of a meal).
During the double-blind treatment period, patients were to take 2 capsules (>96% E-EPA or matching placebo) in the morning and 2 capsules in the evening for a total of 4 capsules per day. • Patients in the >96% E-EPA 2 g/day treatment group received 1>96% E-EPA 1 g capsule and 1 matching placebo capsule in the morning and in the evening. • Patients in the >96% E-EPA 4 g/day treatment group received 2>96% E-EPA 1 g capsules in the morning and evening.
The primary efficacy variable for the double-blind treatment period was percent change in TG from baseline to Week 12 endpoint. […]

[2] = tested on: subjects with Age-Associated Memory Impairment; assay: Safety and tolerability (adverse events), 6-week AAMI study; assay type: in vivo, human
Procedure: Ninety-four subjects were randomized into one of six groups: 1 g E-EPA daily (n=23), 2 g E-EPA daily (n=24), 4 g E-EPA daily (n=24), 1 g placebo daily (n=7), 2 g placebo daily (n=8), and 4 g placebo daily (n=8).
All randomized subjects that received at least 1 dose of study medication were included in the Safety Population.
Safety evaluations were based on the safety population. Safety and tolerability were assessed in terms of AEs, vital signs, 12-lead ECG, clinical laboratory data, medical history, and study drug compliance. Safety and tolerability data were presented by treatment group.

[3] = 4 g/day, week 12, listed as IPE

## CC/C=C\C/C=C\C/C=C\C/C=C\C/C=C\CCCC(=O)OCC [AMR101, ethyl eicosapentaenoate]
[1]; 2 g/day, week 12
  Apo B, Change from Baseline, %: 3.3%
  Apo B, End of Treatment, median (IQR): 95.0 (23.00) mg/dL
  Apo B, Median % Change From Baseline vs Placebo: −2.6%
  HDL-C, Change from Baseline, %: 2.2%
  HDL-C, End of Treatment, median (IQR): 38.0 (12.00) mg/dL
  HDL-C, Median % Change From Baseline vs Placebo: −1.4%
  LDL-C, Change from Baseline, %: 2.5%
  LDL-C, End of Treatment, median (IQR): 87.0 (28.00) mg/dL
  LDL-C, Median % Change From Baseline vs Placebo: −2.4%
  Non-HDL-C, Change from Baseline, %: 2.7%
  Non-HDL-C, End of Treatment, median (IQR): 134.0 (44.00) mg/dL
  Non-HDL-C, Median % Change From Baseline vs Placebo: −4.4%
  TG, Change from Baseline, %: −5.8%
  TG, End of Treatment, median (IQR): 246.0 (117.00) mg/dL
  TG, Median % Change From Baseline vs Placebo: −10.3%
  hsCRP, Change from Baseline, %: 8.4%
  hsCRP, End of Treatment, median (IQR): 2.5 (3.35) mg/L
  hsCRP, Median % Change From Baseline vs Placebo: −7.6%
[1]; 4 g/day, week 12
  Apo B, Change from Baseline, %: −2.2%
  Apo B, End of Treatment, median (IQR): 89.0 (26.00) mg/dL
  HDL-C, Change from Baseline, %: 0.0%
  HDL-C, End of Treatment, median (IQR): 36.0 (12.00) mg/dL
  HDL-C, Median % Change From Baseline vs Placebo: −4.0%
  LDL-C, Change from Baseline, %: 2.1%
  LDL-C, End of Treatment, median (IQR): 83.0 (31.00) mg/dL
  Non-HDL-C, Change from Baseline, %: −5.3%
  Non-HDL-C, End of Treatment, median (IQR): 121.0 (37.00) mg/dL
  TG, Change from Baseline, %: −17.4%
  TG, End of Treatment, median (IQR): 221.0 (93.50) mg/dL
  hsCRP, Change from Baseline, %: −3.4%
  hsCRP, End of Treatment, median (IQR): 2.0 (3.00) mg/L
[1]; [3]
  Apo B, Median % Change From Baseline vs Placebo: −8.8%
  LDL-C, Median % Change From Baseline vs Placebo: −5.2%
  Non-HDL-C, Median % Change From Baseline vs Placebo: −13.5%
  TG, Median % Change From Baseline vs Placebo: −21.7%
  hsCRP, Median % Change From Baseline vs Placebo: −23.0%
[2]; 1 g
  nausea Probably Related to the study drug: One
[2]; 1 g cohort
  nausea Possibly Related to the study drug, subjects: two
[2]; 2 g cohort
  nausea Possibly Related to the study drug, subjects: one
[2]; 2 g treatment group
  SAE reported: One
  subjects discontinued due to TEAEs: 2 subjects
[2]; 2 g, one subject
  Serious Adverse Event (worsening epigastric chest pain), relation to study drug: unrelated to the study drug
[2]; 4 g
  diarrhea Probably Related to the study drug: Another subject
[2]; 4 g cohort
  nausea Possibly Related to the study drug, subjects: two
[2]; all groups
  TEAEs Definitely Related to the study drug: No TEAEs were Definitely Related
  deaths during the study: no deaths
[2]; ethyl-EPA treatment groups (1 g, 2 g, 4 g), placebo groups 34 events
  treatment emergent AEs (TEAEs) reported: 105 events
